According to patent publication US20130202657A1, “FOAMS OR PARTICLES FOR APPLICATIONS SUCH AS DRUG DELIVERY” (BASF SE, priority 2010, published 2013):

Key:
[1] = Solubility of APIs in PVPVA (thin layer dried on glass slide, optical microscopy); format: physicochemical; conditions: % by mass in PVPVA; bright-field and cross-polarized optical microscopy
Description: The effect of API loading on PVPVA foams was studied next. To make API-laden polymer foams, a model API was added to the polymer before foaming. Clotrimazole and cholesterol were used in this example as model APIs. PVPVA was loaded with the API at concentrations ranging from 0% by mass to 30% by mass, as described above. The solubility of APIs in PVPVA was first tested by dissolving both the API and the polymer in a solvent, then spreading a thin layer on a glass slide to dry. […] These crystals were visible under bright-field and cross-polarized optical microscopy. […] Solid solutions of clotrimazole were obtained at up to 20% loading.

[2] = at typical operating pressures and temperatures; cited from earlier work

CC(C)CCC[C@@H](C)[C@H]1CC[C@H]2[C@@H]3CC=C4C[C@@H](O)CC[C@]4(C)[C@H]3CC[C@]12C [cholesterol]
API loading in PVPVA at which crystals precipitate [1]: about 30%
solubility in CO2 [2]: about 2 g/l
